One data set concerns HIV-1 (IIIB). In words: cell-based HIV-1 replication assay in MT4-LTR-EGFP cells, wild type. As to conditions: Human immunodeficiency virus 1, 72 h, 3 days, EGFP fluorescence. The text has this: MT4-LTR-enhanced green fluorescent protein (EGFP) cells were obtained by transfecting MT4 cells with a selectable construct encompassing the coding sequences for the HIV LTR as a promoter for the expression of EGFP and subsequent selection of permanently transfected cells. MT4-cytomegalovirus (CMV)-EGFP cells were obtained by selection for permanently transformed MT4 cells with a CMV-EGFP reporter gene. Cell lines were maintained in RPMI 1640 medium supplemented with 10% heat-inactivated fetal calf serum, 2 mM L-glutamine, 0.1% NaHCO3, and antibiotics (0.02% gentamicin and 0.8% G418) and incubated in a humidified incubator with a 5% CO2 atmosphere at 37° C.
The inhibitory antiviral activity of different compounds was determined in a cell-based HIV-1 replication assay. MT4-LTR-EGFP cells (150,000 cells/ml) were infected with HIV-1 (IIIB or SDM strains Q148R, N155H, or G140S-Q148H; multiplicity of infection [MOI] of 0.0025) in the presence or absence of inhibitor. After 3 days of incubation, the inhibition of HIV replication was quantified by measuring EGFP fluorescence, and expressed as the compound concentration required for 50% inhibition of HIV-1 replication in cell culture (EC50). The antiviral activities of the different compounds are reported in Table 4 and expressed as EC50 for the inhibition of wild type HIV (IIIB EC50) and as fold change in activity against the mutant strains (FC-Q148R, FC-N155H, FC-G140S-Q148H) compared to the activity against wild type HIV.

A further data set has as its system HIV-1 SDM strain Q148R. In words: cell-based HIV-1 replication assay in MT4-LTR-EGFP cells, Q148R mutant. As to conditions: fold change in activity against Q148R mutant compared to wild type HIV.
In the next data set the test system is HIV-1 SDM strain N155H. In words: cell-based HIV-1 replication assay in MT4-LTR-EGFP cells, N155H mutant. As to conditions: fold change in activity against N155H mutant compared to wild type HIV.
Data set [1] concerns HIV-1 SDM strain G140S-Q148H. The data set is described as follows: cell-based HIV-1 replication assay in MT4-LTR-EGFP cells, G140S-Q148H mutant. As to conditions: fold change in activity against G140S-Q148H mutant compared to wild type HIV.
A further data set deals with HIV-1 LAI (IIIB). In words: antiviral assay in the presence of 50% human serum. It counts as cell-based. As to conditions: Human immunodeficiency virus 1, IIIB, 96 h, MT-4-LTR-EGFP cells, 4 days, resazurin cell viability. The essentials:
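MT-4-LTR-EGFP cells were infected at MOI 0.001–0.01 CCID50/cell for 1 h, washed, then cultured 4 days with serially diluted compound in 50% human serum (10% FCS used in parallel). EC50/HS was derived from resazurin cell-viability readout.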
(In general: Resazurin is reduced to fluorescent resorufin, in cell work by metabolically active cells.)

Data set [2] is described as follows: pharmacokinetic evaluation in the rat. Format: in vivo, male Sprague-Dawley rats. As to conditions: 2 mg/kg, intravenous bolus 2 mg/kg; for clearance / half-life / Vd: male, Sprague-Dawley, plasma, iv; for clearance: read-out: CLp; for Vd: volume of distribution at steady-state, read-out: Vss. As to the method: For determining the pharmacokinetic properties in rat, each HIV integrase inhibitor was dissolved in PEG400/normal saline (70:30 (v/v)) at a nominal concentration of 1 mg/ml and administered (2 ml/kg) to male Sprague-Dawley rats (n=3 per test compound) as an intravenous bolus via a saphenous vein at a dose level of 2 mg/kg. […] Plasma was obtained by centrifugation and stored at −20° C. prior to analysis. Analysis was performed using liquid chromatography (LC) with tandem mass spectrometric detection (MS/MS) in positive ion mode. Each HIV integrase inhibitor was eluted from a reversed-phase column with a gradient of acetonitrile and water containing 0.1% (v/v) formic acid. At the time of analysis plasma samples (50 p. 1) were thawed and […] with 200 μl of acetonitrile containing 0.1% (v/v) formic acid and centrifuged. Aliquots of the supernatant (100 μl) were diluted with 200 μl of water containing 25% (v/v) methanol and 0.1% (v/v) formic acid and injected via an electrospray interface directly into the Mass Spectrometer. Calibration standards and quality controls were prepared in rat plasma at the same time as the samples and analyzed before and after the samples containing HIV integrase inhibitor. Non-compartmental pharmacokinetic analysis of the plasma concentration-time curves was performed using WinNonLin software to provide estimates of the plasma clearance (CLp), volume of distribution at steady-state (Vss) and terminal phase elimination half-life (t1/2).

Data set [3] concerns cryopreserved hepatocytes from Sprague Dawley rats. In words: metabolic stability in rat hepatocytes. As to conditions: 1 μM, percentage turnover; for Rat (% TO) 15 min: 15 min incubation; for Rat (% TO) 60 min: 60 min incubation. It counts as in vitro ADME. As to the method:
(§1) For determining in vitro metabolic stability, cryopreserved hepatocytes from Sprague Dawley rats and of human subjects (pool of male and female) were obtained from an external supplier (Cellz Direct Inc., Paisly, UK). Tested compounds were dissolved in DMSO and this stock solution was used to spike rat and human hepatocyte cell cultures (10^6 cells/ml) at a final concentration of 1 μM (final percentage of DMSO was 0.02% (v/v)). Incubations were performed for up to 60 min at approximately 37° C. and terminated by the addition of two volumes of DMSO. Samples were then centrifuged and aliquots of the supernatant analyzed using liquid chromatography (LC) with electrospray mass spectrometric detection (MS/MS) to monitor the disappearance of parent compound by single reaction monitoring (SRM) and reverse-phase chromotatography with a gradient of acetonitrile and water containing 0.1% (v/v) formic acid. Based on peak area, the percentage of parent compound remaining after 15 and 60 min incubation was calculated and the results, expressed as percentage turnover (TO) relative to time zero controls.

For data set [4], the system named is cryopreserved hepatocytes of human subjects. In words: metabolic stability in human hepatocytes. Format: in vitro ADME. As to conditions: 1 μM, percentage turnover; for Human (% TO) 15 min: 15 min incubation; for Human (% TO) 60 min: 60 min incubation. The protocol:
as §1

Where [5] appears, read: terminal phase elimination half-life.

Each structure is given as a SMILES string.

From US8716293B2, “Macrocyclic integrase inhibitors” (Janssen R&D Ireland, priority 2010, dated 2014) come the findings set out here.

For the compound `CCN1C[C@H](C)n2c(c(O)c3c(=O)n4nc(c32)N(C)S(=O)(=O)CCCCOc2cc(F)ccc2C4)C1=O` [Compound 1], the melting point (as a rule, the temperature, or range, at which the solid turns liquid) was in the range of 298.6 to 300.6 °C. Further, the EC50 (commonly the concentration at which the effect is half-maximal) in the data set on HIV-1 (IIIB) is 0.92 nM. For the same compound, the FC-Q148R with HIV-1 SDM strain Q148R stood at 0.7. Moreover, in the data set with HIV-1 SDM strain N155H, the FC-N155H is on record as 3.2. This compound registered an FC-G140S-Q148H in [1] of 2.6. Further, the 50% effective concentration (EC50) in the data set with HIV-1 LAI (IIIB) was found to be 3 nM. In [2] (plasma clearance), the clearance came out at 8 mL/min/kg. Also, in data set [2] (setting [5]), the half-life (commonly the time needed for the level to fall by half in the phase considered) was 4.8 h. Moreover, in data set [2], the Vd stood at 0.8 L/kg. In addition, in [3], the “Rat (% TO) 15 min” value turned out to be 30 % TO and the “Rat (% TO) 60 min” value is 42 % TO. Moreover, in data set [4], the “Human (% TO) 15 min” value was 16 % TO and the “Human (% TO) 60 min” value is given as 31 % TO.
The compound `CCN1C[C@H](C)n2c(c(O)c3c(=O)n4nc(c32)C(=O)NCCCCCOc2cc(F)ccc2C4)C1=O` [Compound 3] came in with a melting point of 128.21 °C. In the data set with HIV-1 (IIIB), the EC50 came out at 2.35 nM. The compound also returned an FC-Q148R with HIV-1 SDM strain Q148R of 0.9. This compound also came in with an FC-N155H with HIV-1 SDM strain N155H of 3.9. Also, the FC-G140S-Q148H in [1] came out at 8.1. Moreover, the EC50 in the data set with HIV-1 LAI (IIIB) was 13 nM. Besides, in data set [2] (plasma clearance), the CLp stood at 8 mL/min/kg and the clearance worked out at 6 mL/min/kg. In data set [2] (setting [5]), this compound gave a t1/2 of 7.8 h and a half-life of 4.4 h.
`CCN1C[C@H](C)n2c(c(O)c3c(=O)n4nc(c32)C(=O)NCCCCCOc2cc(F)c(F)cc2C4)C1=O` [Compound 4] showed a melting point of 127.49 to 128.63 °C. Further, a half-maximal response in the data set on HIV-1 (IIIB) (EC50) required 2.61 nM. In the data set on HIV-1 SDM strain Q148R, the FC-Q148R came to 1.2. For the same compound, in the data set on HIV-1 SDM strain N155H, the FC-N155H came out at 6.1. The compound further came in with an FC-G140S-Q148H in [1] of 10.9. In addition, the EC50 with HIV-1 LAI (IIIB) amounted to 10 nM.
`CCN1C[C@@H](C)n2c(c(O)c3c(=O)n(Cc4ccc(F)c(Cl)c4)nc(N4CCN(C)S4(=O)=O)c32)C1=O` [Compound 54r, reference compound]: a half-maximal response in the data set on HIV-1 (IIIB) (EC50) required 2.04 nM. The FC-Q148R with HIV-1 SDM strain Q148R came to 0.4. This compound also returned an FC-N155H with HIV-1 SDM strain N155H of 4.4. The compound also registered an FC-G140S-Q148H in [1] of 3.1. Also, in the data set on HIV-1 LAI (IIIB), the concentration giving a half-maximal response (EC50) was 7 nM. Moreover, the clearance in data set [2] (plasma clearance) came out at 40 mL/min/kg. The compound further had a half-life in [2] (setting [5]) of 1.5 h. In [2], the Vd worked out at 2.2 L/kg. For the same compound, in data set [3], the “Rat (% TO) 15 min” value worked out at 32 % TO and the “Rat (% TO) 60 min” value is reported as 46 % TO. In [4], the “Human (% TO) 15 min” value came to 16 % TO and the “Human (% TO) 60 min” value stood at 23 % TO.
